# pIC50: −log10 of the molar value. Where two headings read alike, the source gives them in different places.
# What was measured:
# [1] = system: spinal nerve ligation model; assay: Test of spinal nerve ligation model (von Frey hair test); type: in vivo, rat; conditions: read-out: Improvement rate % (dose)
# Method: The test was carried out in accordance with Pain, 1992, Vol. 50, p. 355-363. The lumbar skin and muscle of a rat (SD, male, 5- to 6-week old) were incised under pentobarbital anesthesia and the transverse processes of lumbar L6 were removed to expose lumbar nerves. The L5 and L6 spinal nerves were ligated with silk thread and then the wound was sutured. The treatment was performed on the left side. However, in a case of a pseudo-operation, the wound was sutured without carrying out the nerve ligation.
# Drug efficacy evaluation was carried out by a von Frey hair test 7 to 20 days after the operation. The withdrawal response threshold was calculated in accordance with Journal of Neuroscience Methods, 1994, Vol. 53, p. 55-63. The plantar of hindlimb was stimulated using 8 kinds of von Frey filaments (0.41 to 15.14 g), and 50% withdrawal response thresholds were determined by an up-and-down method. The test was initiated from 2.04 g of the filament, and a case where the withdrawal response of the limb was observed was taken as presence of the response.
# On the previous day of the drug efficacy evaluation, the animals showing reduction in the thresholds according to a von Frey hair test were preliminarily selected and grouped such that the difference in the average values of the thresholds between the respective groups was reduced.
# The test substance was suspended in a 0.5% methylcellulose solution and administered orally 2 hours before the drug efficacy evaluation. The evaluation of the test substance was carried out by determining the improvement rate of the group administered with the test substance when the threshold of the limb on the treatment side in the pseudo-operation animal group was taken as 100% and the threshold of the limb on the treatment side in an operated animal group administered with a solvent was taken as 0%.
# rat recombinant 11β-HSD1 = rat recombinant 11β-HSD1 (Rattus norvegicus (Rat), UniProt P16232); assay: Measurement test for rat 11β-HSD1 inhibitory activity (HTRF cortisol detection); type: biochemical; conditions: rat recombinant 11β-HSD1, 200 nM cortisone, 40 μM NADPH, pH 6.6, room temperature 1 hour
# Sequence of rat recombinant 11β-HSD1 (P16232 whole entry): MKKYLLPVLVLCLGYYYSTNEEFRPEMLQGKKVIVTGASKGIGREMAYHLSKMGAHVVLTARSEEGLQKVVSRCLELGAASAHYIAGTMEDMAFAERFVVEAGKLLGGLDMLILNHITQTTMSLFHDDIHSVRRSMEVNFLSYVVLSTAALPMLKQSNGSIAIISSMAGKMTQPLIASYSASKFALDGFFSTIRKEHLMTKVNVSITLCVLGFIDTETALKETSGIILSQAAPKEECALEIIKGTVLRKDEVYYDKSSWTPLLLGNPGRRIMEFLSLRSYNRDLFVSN
# Method: The procedure for measuring the 11β-HSD1-inhibitory activity is as follows. The enzyme reaction and the measurement were carried out using a 384-well plate. The enzyme was prepared in accordance with Journal of Biological Chemistry, 2001, Vol. 276, p. 21343-21350. The reaction was carried out by adding a test compound at various concentrations to a reaction liquid consisting of a 5 mM phosphate buffer (pH 6.6), 200 nM cortisone, 40 μM reduced nicotinamide adenine dinucleotide phosphate (NADPH), and rat recombinant 11β-HSD1, followed by incubating at room temperature for one hour (10 μl/well). The test compound was prepared by dissolving in dimethyl sulfoxide (DMSO) such that a DMSO concentration reached 1% in the reaction liquid. After the enzyme reaction was completed, the enzyme inhibitory action was measured by detecting cortisol using a homogeneous time-resolved fluorescence (HTRF) method. Each of a d2-labeled cortisol containing 400 μM carbenoxolone and a cryptate-labeled cortisol antibody (CIS Bio International Co., Ltd.) was added at 5 μl/well, followed by incubating at room temperature for 2 hours, and then the fluorescence intensity was measured using a fluorophotometer (trade name: ARVO HTS 1420, Perkin Elmer/Wallac), and the enzyme inhibitory activity was calculated from the fluorescence intensity ratio of two wavelengths (665 nm/620 nm).
# The measurement results were calculated by averaging the values of 3 wells of the same condition. The ratio when DMSO was added instead of the test compound was taken as 0% and the ratio when 11β-HSD1 was not added was taken as 100%, thereby calculating the 50% inhibition concentration of the test compound as IC50 of the compound inhibitory activity.
# [2] = system: fibromyalgia model induced by repeated administration of reserpine; assay: Test of fibromyalgia model induced by repeated administration of reserpine (muscle pressure pain threshold); type: in vivo; conditions: 1 mg/kg oral, maximum among 30, 60 and 120 min after administration, normal rat = 100%, reserpine + solvent = 0%, SD rat
# Method: The test was carried out in accordance with Pain, 2009, Vol. 146, p. 26-33. Rats (SD, male, 7 weeks old) were used.
# The threshold measurement for the muscle pressure pain was carried out according to the method of Schafers et al. (Pain, 2003, Vol. 104, p. 579-588). The pressure stimulus gradually increasing up to 250 g was applied to the gastrocnemius muscle of the right hindlimb of the rat. […] The measurements were carried out in triplicate for each point of time and the average thereof was taken as a measured value.
# A solvent (0.5% acetic acid/water) or reserpine at 1 mg/kg was subcutaneously administered on a dorsal subcutaneous part for 3 days once per day. The administration volume of the solvent or reserpine was taken as 1 mL per kg of a body weight of an animal. The muscle pressure pain thresholds of the respective rats were measured at 6 days after the initiation of the administration of the solvent or reserpine, and grouped such that the difference in the average values of the thresholds between the respective groups was reduced.
# The drug efficacy evaluation was carried out the next day. The test substance was suspended in a 0.5% methylcellulose solution and the muscle pressure pain thresholds were measured 30, 60, and 120 minutes after oral administration. For the normal rats, drug administration was not carried out, and only the measurement of the muscle pressure pain thresholds was carried out. […] The evaluation of the test substance was carried out by determining the maximal improvement rate of the group administered with the test substance among at time points of 30, 60, and 120 minutes after the administration when the muscle pressure pain threshold of the normal rat is taken as 100% and the muscle pressure pain threshold of the rat treated with reserpine while administered with the solvent is taken as 0%.
# [3] = 0.3 mg/kg oral, 2 hours before evaluation, 50% withdrawal response threshold, pseudo-operation group = 100%, operated solvent group = 0%, SD rat
pIC50 (rat recombinant 11β-HSD1),Structure (SMILES),"inhibition in vivo at 0.3 mg/kg [1, 3]","inhibition in vivo at 0.3 mg/kg ([1]; Rattus norvegicus, po, 2 h)",Maximum improvement rate % (dose) [2]
7.46,Cn1c(-c2ccc(F)cc2Br)nnc1C(C)(C)Oc1c(F)cc(F)cc1F [Compound 1],71%,–,–
–,Cn1c(-c2ccc(F)cc2Cl)nnc1C(C)(C)Oc1c(F)cc(F)cc1F [Compound 2],–,88%,30 (1 mg/kg) %
7.62,Cn1c(-c2ccccc2Cl)nnc1C(C)(C)Oc1c(F)cc(F)cc1F [Compound 3],62%,–,–
7.49,Cl.Cn1c(-c2ccccc2Cl)nnc1C(C)(C)Oc1c(F)cc(Cl)cc1F [Compound 4],85%,–,82 (1 mg/kg) %
6.58,Cn1c(-c2ccc(F)cc2Cl)nnc1C(C)(C)Oc1c(F)cc(Cl)cc1F [Compound 5],65%,–,–
6.49,Cn1c(-c2ccccc2F)nnc1C(C)(C)Oc1c(F)cc(F)cc1F [Compound 6],52%,–,–
7.49,Cn1c(-c2c[nH]nc2C(F)(F)F)nnc1C(C)(C)Oc1c(F)cc(F)cc1F [Compound 7],73%,–,–
–,CCn1c(-c2ccc(C(N)=O)cc2)nnc1C(C)(C)Oc1c(F)cc(Cl)cc1F [Compound 8],–,87%,41 (1 mg/kg) %
7.59,CC(C)n1c(-c2ccc(C(N)=O)cc2)nnc1C(C)(C)Oc1c(F)cc(F)cc1F [Compound 9],78%,–,–
–,Cn1c(-c2ccc(C(N)=O)cc2F)nnc1C(C)(C)Oc1c(F)cc(Cl)cc1F [Compound 10],81%,–,65 (1 mg/kg) %
7.19,CC(C)(Oc1ccc(F)cc1F)c1nnc(-c2ccc(C(N)=O)cc2F)n1C1CC1 [Compound 11],82%,–,83 (1 mg/kg) %
6.74,Cn1c(-c2ccc(C(N)=O)cc2F)nnc1C(C)(C)Oc1c(F)cc(F)cc1F [Compound 12],54%,–,–
7.17,CC(C)n1c(-c2ccc(C(N)=O)cc2)nnc1C(C)(C)Oc1c(F)cc(Cl)cc1F [Compound 13],53%,–,–
7.80,CC(C)(Oc1ccc(F)cc1F)c1nnc(-c2ccc(C(N)=O)cc2Cl)n1C1CC1 [Compound 14],73%,–,–
–,CC(C)n1c(-c2ccc(C(N)=O)cc2F)nnc1C(C)(C)Oc1c(F)cc(F)cc1F [Compound 15],–,86%,45 (1 mg/kg) %
